In article PMC11324436 (2024):

What was measured:
Test in all cases: NMM fluorescence enhancement
[1] = tested on: 55PYO2A (DNA, aptamer) CTAGGAATCAGGAGCGAATGTTAGAGTATTTGGATAGTATGTTTATTGTATCGGC; settings: 10 mM KCl, 2 mM MgSO4 (added), 0.37 mM CaCl2; SSMB1 pH 5.9, 23 °C; 2 µM aptamer, 2 µM NMM; no enhancement over control
[2] = tested on: 15THR1A (DNA, aptamer) GGTTGGTGTGGTTGG; settings: 10 mM KCl, 2 mM MgSO4 (added), 0.37 mM CaCl2; SSMB1 pH 5.9, 23 °C; 2 µM aptamer, 2 µM NMM
[3] = tested on: Oligo 5637 (DNA, single strand) GCCTGTTGTGAGCCTCCTGTCGAAGTATGCGATAGGAGCGAATGATATATATCAAGTTACCACACGGATGTACTTGCTTGAGCGTTTATTCTTGTCTCCC; settings: 10 mM KCl, 2 mM MgSO4 (added), 0.37 mM CaCl2; SSMB1 pH 5.9, 23 °C; 2 µM aptamer, 2 µM NMM; no enhancement over control
[4] = tested on: 55PYO4A (DNA, aptamer) GATCGGAATGGGAGCGAATGAGGAGGGAGCGCGGACATGGTGCAGCAGCCCGACG; settings: 10 mM KCl, 2 mM MgSO4 (added), 0.37 mM CaCl2; SSMB1 pH 5.9, 23 °C; 2 µM aptamer, 2 µM NMM

**Q.** For `CCc1c(C)c2cc3nc(cc4nc(cc5c(CC)c(C)c(cc1[nH]2)n5C)C(C)=C4CCC(=O)O)C(CCC(=O)O)=C3C`, which binding [1] is on record?
**A.** no

**Q.** What about the binding [2] of the same compound?
**A.** yes

**Q.** And the binding [3]?
**A.** no

**Q.** What about the binding [4] of the same compound?
**A.** yes
